Data taken from paper PMC10163056, “Vortioxetine hydrobromide inhibits the growth of gastric cancer cells in vivo and in vitro by targeting JAK2 and SRC” (Oncogenesis, 2023).
Where a name gives a salt, the structure may show the parent alone.

What was measured:
SRC = SRC (Homo sapiens, UniProt P12931); test: Kinase-Lumi luminescent kinase assay; also in vitro kinase assay with recombinant SRC and STAT3, bead pull-down of recombinant protein, CETSA in AGS and HGC27 cells; assay type: biochemical
Sequence of SRC (P12931 2-536): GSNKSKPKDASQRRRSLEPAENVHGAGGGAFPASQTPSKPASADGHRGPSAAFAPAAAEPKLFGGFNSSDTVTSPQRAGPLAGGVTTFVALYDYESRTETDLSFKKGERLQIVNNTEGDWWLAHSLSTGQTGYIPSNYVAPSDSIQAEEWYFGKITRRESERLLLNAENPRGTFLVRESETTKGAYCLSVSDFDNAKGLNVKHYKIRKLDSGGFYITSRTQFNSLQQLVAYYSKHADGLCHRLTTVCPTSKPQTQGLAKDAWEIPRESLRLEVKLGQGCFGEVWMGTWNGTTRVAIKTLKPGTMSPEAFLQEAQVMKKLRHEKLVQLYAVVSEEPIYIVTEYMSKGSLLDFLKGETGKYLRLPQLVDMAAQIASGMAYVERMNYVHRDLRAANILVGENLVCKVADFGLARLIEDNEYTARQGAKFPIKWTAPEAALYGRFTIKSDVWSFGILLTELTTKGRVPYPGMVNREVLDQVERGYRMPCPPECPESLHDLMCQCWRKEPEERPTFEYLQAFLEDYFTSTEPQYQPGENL

JAK2 = JAK2 (Homo sapiens, UniProt O60674); test: Kinase-Lumi luminescent kinase assay; also in vitro kinase assay with recombinant JAK2 and STAT3, bead pull-down of recombinant protein, CETSA in AGS and HGC27 cells; assay type: biochemical
Sequence of JAK2 (O60674 whole entry): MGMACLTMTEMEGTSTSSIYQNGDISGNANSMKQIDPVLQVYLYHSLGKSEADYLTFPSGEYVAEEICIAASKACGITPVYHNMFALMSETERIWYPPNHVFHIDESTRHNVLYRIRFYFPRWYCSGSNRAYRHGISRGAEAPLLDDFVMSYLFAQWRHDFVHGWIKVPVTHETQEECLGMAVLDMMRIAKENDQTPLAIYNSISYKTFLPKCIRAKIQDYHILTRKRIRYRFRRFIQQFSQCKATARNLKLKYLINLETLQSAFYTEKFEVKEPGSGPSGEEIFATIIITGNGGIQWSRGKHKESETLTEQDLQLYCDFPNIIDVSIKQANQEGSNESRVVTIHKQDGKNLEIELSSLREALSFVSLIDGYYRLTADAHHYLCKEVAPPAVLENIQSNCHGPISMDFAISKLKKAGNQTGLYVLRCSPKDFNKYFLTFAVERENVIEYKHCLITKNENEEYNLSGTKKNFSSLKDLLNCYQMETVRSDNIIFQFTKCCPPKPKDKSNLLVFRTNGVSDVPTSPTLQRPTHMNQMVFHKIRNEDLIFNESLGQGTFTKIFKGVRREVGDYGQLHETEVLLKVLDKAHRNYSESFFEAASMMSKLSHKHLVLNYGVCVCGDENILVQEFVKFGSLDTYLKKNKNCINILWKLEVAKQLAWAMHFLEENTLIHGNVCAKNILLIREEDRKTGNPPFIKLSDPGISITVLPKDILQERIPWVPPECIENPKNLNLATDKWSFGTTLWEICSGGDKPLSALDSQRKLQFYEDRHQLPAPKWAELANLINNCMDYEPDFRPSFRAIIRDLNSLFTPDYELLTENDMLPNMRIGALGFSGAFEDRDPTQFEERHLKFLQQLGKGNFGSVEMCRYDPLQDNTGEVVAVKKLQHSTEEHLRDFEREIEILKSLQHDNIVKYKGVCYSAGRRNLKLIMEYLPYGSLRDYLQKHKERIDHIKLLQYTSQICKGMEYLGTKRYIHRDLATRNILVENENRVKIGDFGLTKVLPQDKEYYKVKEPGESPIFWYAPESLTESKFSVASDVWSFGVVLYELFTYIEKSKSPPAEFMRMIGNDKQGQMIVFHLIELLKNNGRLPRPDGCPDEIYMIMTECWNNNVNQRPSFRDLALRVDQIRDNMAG

IC50 (SRC): 6.5 µM
IC50 (JAK2): 8.53 µM
SMILES: Cc1ccc(Sc2ccccc2N2CCNCC2)c(C)c1 [vortioxetine hydrobromide]
